Assay results: publication PMC10224356, “Trisubstituted 1,3,5-Triazines as Histamine H4 Receptor Antagonists with Promising Activity In Vivo” (Molecules, 2023)
Each block holds one molecule with its values, some of them ahead of it.

How the values were obtained:
[1] = PAMPA assay (blood-brain barrier permeability); type: in vitro ADME; details: 200 µM, 5 h
Procedure: This test is a popular method for estimating the possibility of crossing BBB through passive transport. […] Caffeine was used as a standard well-permeable compound.
The Gentest^TM PAMPA Plate System, purchased from Corning (Tewksbury, MA, USA), was used for permeability evaluation. Caffeine (a reference) and the compound tested were dissolved in DMSO (10 mM stocks) and after dilution to 200 μM in PBS (pH 7.4), added to donor wells. Then, after incubation for 5 h at room temperature, concentrations of tested compounds in donor and acceptor wells were estimated by the mass spectra (LC/MS) method as described previously. The UPLC/MS Waters […] TQD system with the TQ Detector (Waters, Milford, CT, USA) was used for this detection. The assay was performed in triplicate. The permeability value (Pe) was calculated using the formula described by Chen et al..

[2] = target: T1, human histamine H4 receptor (Homo sapiens, UniProt Q9H3N8); details: ref 57 (Grosicki et al.); read-out: hH4R Ki; cited from earlier work
T1 construct: made in house; host or cells: Sf9 cells (membrane preparations)

hH4R [3] = target: T2, hH4R (Homo sapiens, UniProt Q9H3N8); test: cAMP accumulation assay (LANCE Ultra cAMP, CHO-K1 cells stably expressing hH4R); type: cell-based; set-up: expressed in transfected cells
Procedure: Intrinsic activity via the Gα subunit was measured using a LANCE Ultra cAMP detection kit and CHO-K1 cells stably expressing hH4R. Adenyl cyclase was stimulated by forskolin (10 µM).
Intrinsic activity in G protein-dependent pathway was measured with homogenous TR-FRET immunoassay, using LANCE Ultra cAMP kit and CHO-K1 H4R cell line or γ-irradiated recombinant CHO-K1 H4R cells (all from PerkinElmer). […] If the CHO-K1 H4R cell line was used it had been cultivated in DMEM/F12 10% FBS 400 µg/mL geneticin and passaged three times a week. […] The antagonist activity was measured in a white, opaque, 384-well microplate (PerkinElmer) with a total volume of 20 µL. […] After incubation, 5 µL of europium chelate-labelled cAMP tracer and 5 µl of ULight-labelled anti-cAMP mAb working solutions were added, mixed and incubated for 1 h. TR-FRET signal was read using a microplate reader (PerkinElmer, Waltham, MA, USA).

hH4R [4] = target: T2, hH4R; test: as above; type: cell-based; set-up: expressed in transfected cells; details: antagonist mode
hH4R [5] = target: T2, hH4R; test: β-arrestin recruitment assay (LiveBLAzer, Tango-H4-bla U2OS cells); type: cell-based; set-up: expressed in transfected cells; host or cells: Tango-H4-bla U2OS cells
Procedure: Compounds were tested using LiveBLAzer^TM assay and Tango-H4-bla U2OS cells, allowing the estimation of the percentage of β-arrestin recruitment in response to tested treatments.
All used media and reagents except DMSO and tested compounds were purchased from ThermoFisher Scientific, Waltham, MA, USA. DMSO was from CarlRoth (Karlsruhe, Germany) and histamine was from Sigma Aldrich (Darmstadt, Germany). […] The day before the experiment cells were collected from the culture flask with trypsin and seeded in 384 well black-wall, clear-bottom plate (PerkinElmer, Waltham, MA, USA) in concentration 10,000 cells/well in FreeStyle medium. After 24 h of incubation, the cells were checked under the microscope and the dilutions of tested compounds were prepared and added to the wells. In agonist mode compounds were added to the wells and plates were placed in the incubator (HERAcell240, Heraeus, Hanau, Germany) for 16 h. In antagonist mode, first, the compounds were added to the wells, plates were incubated for 30 min, then histamine solution (corresponding to EC80—500 nM) was added and plates were put in the incubator for 16 h. After this time β-lactamase substrate mixture was prepared and added to wells (8 µL/well). Cells were incubated for 2 h at room temperature in the dark then the signal was read using an EnSpire microplate reader (PerkinElmer, Waltham, MA, USA). Drawing of dose-dependent curves and IC50 calculation for compounds were made using GraphPad Prism 6 (GraphPad Software, San Diego, CA, USA).

mice [6] = test: Histamine-induced pruritus; type: in vivo; details: 10 mg/kg, 60 min observation (control 62.11 ± 9.4)
Procedure: Intradermal injection of histamine induced scratching bouts in the amount of 62.11 ± 9.4. […].
(§1) The surface (around 2 cm^2) of the mice’s nape was shaved at least 2 days prior to experiments. On the day of the experiment, mice were individually placed in plastic chambers (15 × 15 × 30 cm) and after the 30 min habituation period, they were given an intradermal (i.d.) injection of histamine dihydrochloride (10 µmol/site) or chloroquine (CQ, 200 µg/site), which were dissolved in physiological saline and administrated in the constant volume of 20 μL. Immediately after the injection, scratching (series of movements considered as a single scratching bout) of the injected site by the hind paw was counted for 60 min or 30 min after histamine and CQ administration, respectively. Before pruritogens injection different groups of mice were treated i.p. with vehicle (10 mL/kg, negative control) or the dose–response of investigated compound.
(§2) Figure 9 The effect of compound 6 and reference compound pyrilamine (Pyr) on the number of scratching bouts during 60 min-long observation in histamine-induced pruritus (A) and 30 min-long observation in chloroquine-induced pruritus (B). The tested compound or vehicle (1% solution of Tween 80) was administered intraperitoneally (i.p.) 30 min before the intradermal (i.d.) injection of histamine or chloroquine. The results are presented as bar plots showing the mean ± SEM. Statistical analysis: one-way ANOVA followed by Dunnett’s post hoc test, * p < 0.05, ** p < 0.01, *** p < 0.001, n = 8–10 mice per group.

mice [7] = test: Chloroquine-induced pruritus; type: in vivo; details: 10 mg/kg, 30 min observation
Source text: When comparing the activity of the tested in both used models, it should be noted that the efficacy (higher maximal effect) and potency (lower doses needed to obtain the same result) of the compound were better in histamine-induced pruritus. Nevertheless, compound 6 was also active in histamine-independent itch, which contrasts with the activity of pyrilamine representing a commonly used drug in the treatment of pruritus. […] The wide spectrum of antipruritic activity of compound 6 is very promising, considering that histamine-independent itch is still a crucial clinical problem in pruritus treatment.
as §1, §2

Structure (SMILES): Cn1c(=O)c2c(ncn2C)n(C)c1=O [Caffeine]
Mass Retention (R) [1]: 1.54%
Pe (permeability coefficient) ± SD ([1]; PBS pH 7.4, permeable if Pe > 1.5 × 10^−6 cm/s): 9.78 ± 1.75 10^−6 cm/s
Mass Retention (R) ([1]; listed as caffeine): 1.54%

melting point: 149 to 153 °C
IC50 (hH4R [3]; antagonist mode, forskolin 10 µM, histamine 140 nM, CHO-K1 hH4R cells, read-out: cAMP hH4R IC50 ± SEM): 743 ± 30 nM
Kb (hH4R [3]; calculated from IC50 by Leff–Dougall variant of Cheng–Prusoff equation, read-out: pKb cAMP ± SEM (converted)): 263 nM
cAMP hH4R % of max. Antagonist Activity at 10 µM (hH4R [4]): 98%
IC50 (hH4R [5]; antagonist mode, histamine 500 nM (EC80), Tango-H4-bla U2OS cells, read-out: β-arrestin hH4R IC50 ± SEM): 41 ± 6 nM
β-arrestin hH4R % of max. Antagonist Activity at 10 µM (hH4R [5]; at 10 µM, antagonist mode): 102%
Kb (hH4R [5]; calculated from IC50 by Leff–Dougall variant of Cheng–Prusoff equation, read-out: pKb β-arrestin ± SEM (converted)): 6.76 nM
Structure (SMILES): CN1CCN(c2nc(N)nc(CC3=CCCCC3)n2)CC1 [Compound 8, 4-(Cyclohexenylmethyl)-6-(4-methylpiperazin-1-yl)-1,3,5-triazin-2-amine]
Ki [2]: 4700 nM

Structure (SMILES): COc1ccc(CN(CCN(C)C)c2ccccn2)cc1 [pyrilamine, reference compound]
Number of scratch bouts, histamine-induced pruritus (mice [6]): 28.56 ± 3.55 scratch bouts
Effect on scratching behaviour, chloroquine-induced pruritus (mice [7]): did not significantly reduce scratching behaviour
